Experimental data from US20250034150A1, “BTK INHIBITORS” (BIOGEN MA INC., priority 2021, published 2025).
Like-named read-outs stand apart in the source and are kept apart here.

Experiments:
[1] = tested on: CD69 expression on CD19+ B cells in human whole blood; test: In Vitro whole blood CD69 Assay; type: cell-based; details: B-cell, read-out: In Vitro HWB CD69 Assay IC50 Score
Outline: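 Heparinized healthy-donor human whole blood was preincubated with compound (0.1% DMSO) for 30 min at 37 °C. Stimulation used 0.1 µg/mL anti-IgD-dextran or 20 µg/mL rabbit F(ab′)2 anti-IgD for 18–22 h at 37 °C. CD69 on gated CD19+ B cells was then measured by flow cytometry.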

BTK = molecular target: T1, BTK (Homo sapiens, UniProt Q06187); test: In Vitro BTK Kinase Assay: Btk-PolyGAT-LS Assay; type: biochemical; details: active BTK enzyme 0.25 nM, polyGAT 100 nM, 30 minutes, TRF readout; read-out: In Vitro BTK Kinase Assay IC50 Score
T1 construct: purchased Upstate 14-552
T1 sequence (Q06187 whole entry): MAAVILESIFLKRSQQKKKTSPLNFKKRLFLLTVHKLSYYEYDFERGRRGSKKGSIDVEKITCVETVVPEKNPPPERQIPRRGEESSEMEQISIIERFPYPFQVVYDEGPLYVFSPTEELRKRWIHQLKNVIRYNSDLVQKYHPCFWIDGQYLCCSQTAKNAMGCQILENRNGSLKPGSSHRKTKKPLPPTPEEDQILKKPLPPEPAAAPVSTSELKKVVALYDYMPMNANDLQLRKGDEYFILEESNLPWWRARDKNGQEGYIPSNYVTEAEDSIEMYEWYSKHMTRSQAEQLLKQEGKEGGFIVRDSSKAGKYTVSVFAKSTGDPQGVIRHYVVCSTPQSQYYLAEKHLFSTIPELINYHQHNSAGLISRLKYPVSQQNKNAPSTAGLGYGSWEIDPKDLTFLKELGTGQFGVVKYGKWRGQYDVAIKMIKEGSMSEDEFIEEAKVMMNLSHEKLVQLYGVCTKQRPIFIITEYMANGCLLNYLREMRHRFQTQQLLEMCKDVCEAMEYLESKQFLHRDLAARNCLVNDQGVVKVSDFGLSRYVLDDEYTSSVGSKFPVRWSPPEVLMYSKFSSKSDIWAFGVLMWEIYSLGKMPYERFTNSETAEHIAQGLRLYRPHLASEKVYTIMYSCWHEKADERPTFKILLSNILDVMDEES
Outline: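 Active BTK at 0.25 nM phosphorylated 100 nM fluorescein-polyGAT peptide at 10 μM ATP for 30 minutes. Buffer was Tris pH 7.5 with MgCl2, DTT, Triton X-100 and casein, and reactions were stopped with EDTA. Phospho-peptide was detected by Tb-PY20 antibody TR-FRET, and IC50 came from a four-parameter fit normalized to DMSO and EDTA controls.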

[2] = human heparinized whole blood, anti-human IgD stimulation overnight, CD19+ B cells, flow cytometry

SMILES	IC50 [1, 2] [µM]	IC50 (BTK) [µM]	IC50 ([1]; Homo sapiens) [µM]
Cc1cc(-c2nc(-c3cnn(C)c3)cn3nccc23)ccc1CNC(=O)c1nnc(C(C)(C)C)o1 [Example 14, 5-(tert-butyl)-N-(2-methyl-4-(6-(1-methyl-1H-pyrazol-4-yl)pyrazolo[1,5-a]pyrazin-4-yl)benzyl)-1,3,4-oxadiazole-2-carboxamide]		< 0.001	< 1
Cn1cc(-c2cn3nccc3c(N3CCC(CNC(=O)c4noc(C(C)(C)C)n4)CC3)n2)cn1 [Example 136, 5-(tert-butyl)-N-((1-(6-(1-methyl-1H-pyrazol-4-yl)pyrazolo[1,5-a]pyrazin-4-yl)piperidin-4-yl)methyl)-1,2,4-oxadiazole-3-carboxamide]		0.001 to 0.01	< 1
Cc1cc(-c2cc(-c3cnn(C)c3)cn3nccc23)ccc1CNC(=O)c1noc(C2(C)CC2)n1 [Example 65, N-(2-methyl-4-(6-(1-methyl-1H-pyrazol-4-yl)pyrazolo[1,5-a]pyridin-4-yl)benzyl)-5-(1-methylcyclopropyl)-1,2,4-oxadiazole-3-carboxamide]		< 0.001	< 1
Cn1cc(-c2cn3nccc3c(-c3ccc(CNC(=O)c4ccn(C(C)(C)C)n4)c(F)c3)n2)cn1 [Example 11, 1-(tert-butyl)-N-(2-fluoro-4-(6-(1-methyl-1H-pyrazol-4-yl)pyrazolo[1,5-a]pyrazin-4-yl)benzyl)-1H-pyrazole-3-carboxamide]	1 to 10	0.001 to 0.01	
Cn1cc(-c2cc3nccn3c(-c3ccc(CNC(=O)c4noc(C5(C)CC5)n4)cc3)n2)cn1 [Example 60, N-(4-(7-(1-methyl-1H-pyrazol-4-yl)imidazo[1,2-c]pyrimidin-5-yl)benzyl)-5-(1-methylcyclopropyl)-1,2,4-oxadiazole-3-carboxamide]	1 to 10	0.001 to 0.01	
Cn1cc(-c2cc(-c3ccc(CNC(=O)c4ccn(C(C)(C)C)n4)c(F)c3)c3ccnn3c2)cn1 [Example 70, 1-(tert-butyl)-N-(2-fluoro-4-(6-(1-methyl-1H-pyrazol-4-yl)pyrazolo[1,5-a]pyridin-4-yl)benzyl)-1H-pyrazole-3-carboxamide]	1 to 10	0.001 to 0.01	
Cn1cc(-c2cn3nccc3c(-c3ccc(CN4CCN(CC(C)(C)C)CC4=O)c(F)c3)n2)cn1 [Example 35, 1-(2-fluoro-4-(6-(1-methyl-1H-pyrazol-4-yl)pyrazolo[1,5-a]pyrazin-4-yl)benzyl)-4-neopentylpiperazin-2-one]	1 to 10	0.001 to 0.01	
Cn1cc(-c2cn3nccc3c(-c3ccc(CN4CCN(CC(C)(C)C)CC4=O)cc3)n2)cn1 [Example 33, 1-(4-(6-(1-methyl-1H-pyrazol-4-yl)pyrazolo[1,5-a]pyrazin-4-yl)benzyl)-4-neopentylpiperazin-2-one]	1 to 10	0.001 to 0.01	
Cn1cc(-c2cn3nccc3c(-c3ccc(CNC(=O)c4noc(C(C)(C)C)n4)nc3)n2)cn1 [Example 116, 5-(tert-butyl)-N-((5-(6-(1-methyl-1H-pyrazol-4-yl)pyrazolo[1,5-a]pyrazin-4-yl)pyridin-2-yl)methyl)-1,2,4-oxadiazole-3-carboxamide]	1 to 10	0.001 to 0.01	
CC(C)(C)c1nc(C(=O)NCc2ccc(-c3nccn4nccc34)cc2Cl)no1 [Example 82, 5-(tert-butyl)-N-(2-chloro-4-(pyrazolo[1,5-a]pyrazin-4-yl)benzyl)-1,2,4-oxadiazole-3-carboxamide]	1 to 10	0.001 to 0.01	
Cn1cc(-c2cn3nccc3c(N3CCC(CN4CCN(CC(C)(C)C)CC4=O)CC3)n2)cn1 [Example 172, 1-((1-(6-(1-methyl-1H-pyrazol-4-yl)pyrazolo[1,5-a]pyrazin-4-yl)piperidin-4-yl)methyl)-4-neopentylpiperazin-2-one]	1 to 10	0.01 to 1	
Cn1cc(-c2cc3nccn3c(-c3ccc(CNC(=O)c4nc(C5(CF)CC5)no4)cc3)n2)cn1 [Example 63, 3-(1-(fluoromethyl)cyclopropyl)-N-(4-(7-(1-methyl-1H-pyrazol-4-yl)imidazo[1,2-c]pyrimidin-5-yl)benzyl)-1,2,4-oxadiazole-5-carboxamide]		0.001 to 0.01	1 to 10
C[C@@H]1C[C@@H](CNC(=O)c2cn(C(C)(C)C)nn2)CCN1c1nc(-c2cnn(C)c2)cn2nccc12 (single isomer, unassigned) [Example 143]	1 to 10	0.001 to 0.01	
Cn1cc(-c2cn3nccc3c(-c3cc(F)c(CNC(=O)c4cn(C(C)(C)C)nn4)cc3F)n2)cn1 [Example 98, 1-(tert-butyl)-N-(2,5-difluoro-4-(6-(1-methyl-1H-pyrazol-4-yl)pyrazolo[1,5-a]pyrazin-4-yl)benzyl)-1H-1,2,3-triazole-4-carboxamide]	1 to 10	0.001 to 0.01	
COCCOc1cn2nccc2c(-c2ccc(CNC(=O)c3noc(C(C)(C)C)n3)c(C)c2)n1 [Example 132, 5-(tert-butyl)-N-(4-(6-(2-methoxyethoxy)pyrazolo[1,5-a]pyrazin-4-yl)-2-methylbenzyl)-1,2,4-oxadiazole-3-carboxamide]	1 to 10	0.001 to 0.01	
CC1CC(CNC(=O)c2noc(C3(C)CC3)n2)CCN1c1nc(-c2cnn(C)c2)cn2nccc12 (stereo not drawn) [Example 139, N-((2-methyl-1-(6-(1-methyl-1H-pyrazol-4-yl)pyrazolo[1,5-a]pyrazin-4-yl)piperidin-4-yl)methyl)-5-(1-methylcyclopropyl)-1,2,4-oxadiazole-3-carboxamide]	1 to 10	0.001 to 0.01	

The next lines start with results.

IC50 [1, 2] [µM]	IC50 (BTK) [µM]	SMILES	IC50 ([1]; Homo sapiens) [µM]
< 1	< 0.001	Cn1cc(-c2cn3nccc3c(-c3ccc(CNC(=O)c4noc(C(C)(C)CF)n4)cc3)n2)cn1 [Example 22, 5-(1-fluoro-2-methylpropan-2-yl)-N-(4-(6-(1-methyl-1H-pyrazol-4-yl)pyrazolo[1,5-a]pyrazin-4-yl)benzyl)-1,2,4-oxadiazole-3-carboxamide]	
1 to 10	0.001 to 0.01	Cn1cc(-c2cn3nccc3c(N3CC[C@H](CNC(=O)c4noc(C(C)(C)C)n4)[C@H](F)C3)n2)cn1 (single isomer, unassigned) [Example 155]	
1 to 10	0.001 to 0.01	Cn1cc(-c2cn3ncnc3c(N3CCC(CNC(=O)c4noc(C(C)(C)C)n4)CC3)n2)cn1 [Example 73, 5-(tert-butyl)-N-((1-(6-(1-methyl-1H-pyrazol-4-yl)-[1,2,4]triazolo[1,5-a]pyrazin-8-yl)piperidin-4-yl)methyl)-1,2,4-oxadiazole-3-carboxamide]	
< 1	< 0.001	Cn1cc(-c2cn3nccc3c(-c3cc(F)c(CNC(=O)c4nnn(C(C)(C)C)n4)cc3F)n2)cn1 [Example 99, 2-(tert-butyl)-N-(2,5-difluoro-4-(6-(1-methyl-1H-pyrazol-4-yl)pyrazolo[1,5-a]pyrazin-4-yl)benzyl)-2H-tetrazole-5-carboxamide]	
< 1	< 0.001	Cn1cc(-c2cn3nccc3c(-c3ccc(CNC(=O)c4noc(C(C)(C)C)n4)c(F)c3F)n2)cn1 [Example 88, 5-(tert-butyl)-N-(2,3-difluoro-4-(6-(1-methyl-1H-pyrazol-4-yl)pyrazolo[1,5-a]pyrazin-4-yl)benzyl)-1,2,4-oxadiazole-3-carboxamide]	
1 to 10	0.01 to 1	Cn1cc(-c2cc(-c3ccc(CNC(=O)c4noc(C5(C)CC5)n4)cc3)n3cnnc3c2)cn1 [Example 76, N-(4-(7-(1-methyl-1H-pyrazol-4-yl)-[1,2,4]triazolo[4,3-a]pyridin-5-yl)benzyl)-5-(1-methylcyclopropyl)-1,2,4-oxadiazole-3-carboxamide]	
< 1	< 0.001	Cn1cc(-c2cn3nccc3c(-c3ccc(CNC(=O)c4coc(C(C)(C)C)n4)c(F)c3F)n2)cn1 [Example 90, 2-(tert-butyl)-N-(2,3-difluoro-4-(6-(1-methyl-1H-pyrazol-4-yl)pyrazolo[1,5-a]pyrazin-4-yl)benzyl)oxazole-4-carboxamide]	
< 1	< 0.001	Cn1cc(-c2cn3nccc3c(N3CCC(CNC(=O)c4noc(C(C)(C)C)n4)C(F)(F)C3)n2)cn1 (stereo not drawn) [Example 157, 5-(tert-butyl)-N-((3,3-difluoro-1-(6-(1-methyl-1H-pyrazol-4-yl)pyrazolo[1,5-a]pyrazin-4-yl)piperidin-4-yl)methyl)-1,2,4-oxadiazole-3-carboxamide]	
< 1	< 0.001	Cn1cc(-c2cn3nccc3c(-c3ccc(CNC(=O)c4nnn(C(C)(C)C)n4)cc3)n2)cn1 [Example 3, 2-(tert-butyl)-N-(4-(6-(1-methyl-1H-pyrazol-4-yl)pyrazolo[1,5-a]pyrazin-4-yl)benzyl)-2H-tetrazole-5-carboxamide]	
< 1	< 0.001	Cn1cc(-c2cn3nccc3c(-c3ccc(CNC(=O)c4cnn(C(C)(C)C)c4)c(C(F)F)c3)n2)cn1 [Example 107, 1-(tert-butyl)-N-(2-(difluoromethyl)-4-(6-(1-methyl-1H-pyrazol-4-yl)pyrazolo[1,5-a]pyrazin-4-yl)benzyl)-1H-pyrazole-4-carboxamide]	
< 1	< 0.001	Cn1cc(-c2cn3nccc3c(-c3ccc(CNC(=O)c4noc(C5(CF)CC5)n4)cc3)n2)cn1 [Example 20, 5-(1-(fluoromethyl)cyclopropyl)-N-(4-(6-(1-methyl-1H-pyrazol-4-yl)pyrazolo[1,5-a]pyrazin-4-yl)benzyl)-1,2,4-oxadiazole-3-carboxamide]	
